Test results as given in ChEMBL document CHEMBL5325447, “Synthesis and SAR study of novel diimide skeleton compounds with the anti-inflammatory activities in vitro and in vivo” (Bioorg Med Chem, 2023).
Calls of active or inactive are those of the source. No cut-off for these calls is given here.

Columns and labels:
[1] = Cytotoxicity against mouse RAW264.7 cells assessed as cell viability at 10 uM incubated for 24 hrs by MTT assay relative to control; format: toxicity, cell-based; settings: read-out: Activity
RAW264.7 [2] = assay: Antiinflammatory activity against mouse RAW264.7 cells assessed as inhibition of LPS-induced IL-6 production at 10 uM pretreated with compound for 0.5 hrs followed by incubation with LPS for 24 hrs by ELISA; format: functional; settings: time 24.5 hrs
Mus musculus [3] = assay: Antiinflammatory activity against LPS-induced hyperemia C57BL/6J mouse model assessed as decrease in LPS-induced death rate at 20 mg/kg, po administered 1 hr prior to LPS stimulation and measured for 1 week; format: functional, organism-based; settings: time 1.0 weeks
Mus musculus [4] = assay: Antiinflammatory activity against LPS-induced acute lung injury C57BL/6J mouse model assessed as decrease in LPS-induced IL-6 production in serum at 20 mg/kg, ig administered every 12 hrs for 3 times and 30 mins later injected with LPS and measured after 5 hrs by ELISA; format: functional, organism-based; settings: time 41.5 hrs
Mus musculus [5] = assay: Antiinflammatory activity against LPS-induced acute lung injury C57BL/6J mouse model assessed as decrease in disruption of lung tissue structure and alveolar wall thickening at 20 mg/kg, ig administered every 12 hrs for 3 times and 30 mins later injected with LPS and measured after 5 hrs; format: functional, organism-based; settings: time 41.5 hrs
Mus musculus [6] = assay: Antiinflammatory activity against LPS-induced acute lung injury C57BL/6J mouse model assessed as decrease in LPS-induced TNF-alpha production in serum at 20 mg/kg, ig administered every 12 hrs for 3 times and 30 mins later injected with LPS and measured after 5 hrs by ELISA; format: functional, organism-based; settings: time 41.5 hrs
Mus musculus [7] = assay: Antiinflammatory activity against LPS-induced hyperemia C57BL/6J mouse model assessed as decrease in LPS-induced morphological changes in spleen at 20 mg/kg, po administered 1 hr prior to LPS stimulation by Hematoxylin-Eosin staining based analysis; format: functional, organism-based
Mus musculus [8] = assay: Antiinflammatory activity against LPS-induced acute lung injury C57BL/6J mouse model assessed as decrease in ratio of lung wet to dry weight at 20 mg/kg, ig administered every 12 hrs for 3 times and 30 mins later injected with LPS and measured after 5 hrs; format: functional, organism-based; settings: time 41.5 hrs
Mus musculus [9] = assay: (§1) Antiinflammatory activity against LPS-induced acute lung injury C57BL/6J mouse model assessed as decrease in neutrophil number in BALF at 20 mg/kg, ig administered every 12 hrs for 3 times and 30 mins later injected with LPS and measured after 5 hrs by Wrigth-Giemsa staining; format: functional, organism-based; settings: time 41.5 hrs
Mus musculus [10] = assay: Antiinflammatory activity against LPS-induced acute lung injury C57BL/6J mouse model assessed as decrease in LPS-induced IL-6 production in BALF at 20 mg/kg, ig administered every 12 hrs for 3 times and 30 mins later injected with LPS and measured after 5 hrs by ELISA; format: functional, organism-based; settings: time 41.5 hrs
RAW264.7 [11] = assay: Antiinflammatory activity against mouse RAW264.7 cells assessed as inhibition of LPS-induced TNF-alpha production pretreated with compound for 0.5 hrs followed by incubation with LPS for 24 hrs by ELISA; format: functional, cell-based
Mus musculus [12] = assay: as §1, with “LPS-induced F4/80 expression” for “neutrophil number”, “lungs” for “BALF”, “immunohistochemical” for “Wrigth-Giemsa”, “staining based analysis” for “staining”; format: functional, organism-based; settings: time 41.5 hrs
Mus musculus [13] = assay: Antiinflammatory activity against LPS-induced hyperemia C57BL/6J mouse model assessed as decrease in LPS-induced weight loss at 20 mg/kg, po administered 1 hr prior to LPS stimulation and measured for 1 week; format: functional, organism-based; settings: time 1.0 weeks
RAW264.7 [14] = assay: Antiinflammatory activity against mouse RAW264.7 cells assessed as inhibition of LPS-induced IL-6 production pretreated with compound for 0.5 hrs followed by incubation with LPS for 24 hrs by ELISA; format: functional, cell-based
Mus musculus [15] = assay: Antiinflammatory activity against LPS-induced acute lung injury C57BL/6J mouse model assessed as decrease in total protein concentration in BALF at 20 mg/kg, ig administered every 12 hrs for 3 times and 30 mins later injected with LPS and measured after 5 hrs; format: functional, organism-based; settings: time 41.5 hrs
Mus musculus [16] = assay: Antiinflammatory activity against LPS-induced acute lung injury C57BL/6J mouse model assessed as decrease in LPS-induced TNF-alpha production in BALF at 20 mg/kg, ig administered every 12 hrs for 3 times and 30 mins later injected with LPS and measured after 5 hrs by ELISA; format: functional, organism-based; settings: time 41.5 hrs

## O=C(/C=C/c1ccccc1)NC(=O)/C=C/c1ccccc1
[1]
  viability at 24 h, 10 µM: 20.2%
RAW264.7 [2]
  inhibition at 10 µM: 82.5%

## O=C(/C=C/c1ccccc1)NC(=O)c1cccs1
Mus musculus [3]
  Activity: Active
Mus musculus [4]
  Activity: Active
Mus musculus [5]
  Activity: Active
Mus musculus [6]
  Activity: Active
Mus musculus [7]
  Activity: Active
Mus musculus [8]
  Activity: Active
Mus musculus [9]
  Activity: Active
Mus musculus [10]
  Activity: Active
RAW264.7 [11]
  IC50: 15.3 µM
RAW264.7 [11]; time 24.5 hrs
  inhibition: Dose-Dependent Effect
[1]
  viability at 24 h, 10 µM: 110%
Mus musculus [12]
  Activity: Active
Mus musculus [13]
  Activity: Active
RAW264.7 [14]
  IC50: 1590 nM
RAW264.7 [14]; time 24.5 hrs
  inhibition: Dose-Dependent Effect
Mus musculus [15]
  Activity: Active
RAW264.7 [2]
  inhibition at 10 µM: 94.8%
Mus musculus [16]
  Activity: Active

## O=C(/C=C/c1ccccc1)NC(=O)c1ccc2ccccc2n1
[1]
  viability at 24 h, 10 µM: 93.2%
RAW264.7 [2]
  inhibition at 10 µM: 83.3%

## O=C(/C=C/c1ccccc1)NC(=O)c1cc2ccccc2[nH]1
[1]
  viability at 24 h, 10 µM: 32.4%
RAW264.7 [2]
  inhibition at 10 µM: 32%

## COc1ccc2cc(C(C)C(=O)NC(=O)/C=C/c3ccccc3)ccc2c1 (configuration not stated)
[1]
  viability at 24 h, 10 µM: 78.5%
RAW264.7 [2]
  inhibition at 10 µM: 79.1%

## COc1ccc2cc(C(C)C(=O)NC(=O)C(C)c3ccc(CC(C)C)cc3)ccc2c1 (configuration not stated)
[1]
  viability at 24 h, 10 µM: 117%
RAW264.7 [2]
  inhibition at 10 µM: 55.7%

## CC(C)Cc1ccc(C(C)C(=O)NC(=O)/C=C/c2ccccc2)cc1 (configuration not stated)
[1]
  viability at 24 h, 10 µM: 94.4%
RAW264.7 [2]
  inhibition at 10 µM: 90.1%

## CC(C)(C)OC(=O)N1CCC(C(=O)NC(=O)c2ccccc2)C1 (configuration not stated)
[1]
  viability at 24 h, 10 µM: 143%
RAW264.7 [2]
  inhibition at 10 µM: 60.6%

## CC(C)Cc1ccc(C(C)C(=O)NC(=O)c2ccccc2)cc1 (configuration not stated)
[1]
  viability at 24 h, 10 µM: 91%
RAW264.7 [2]
  inhibition at 10 µM: 71.1%

## COc1ccc2cc(C(C)C(=O)NC(=O)c3ccccc3)ccc2c1 (configuration not stated)
[1]
  viability at 24 h, 10 µM: 89.7%
RAW264.7 [2]
  inhibition at 10 µM: 71.2%

## O=C(NC(=O)c1cccs1)c1ccccc1
[1]
  viability at 24 h, 10 µM: 99.3%
RAW264.7 [2]
  inhibition at 10 µM: 62.3%

## COc1ccc2cc([C@H](C)C(=O)O)ccc2c1 [NAPROXEN]
[1]
  viability at 24 h, 10 µM: 112%
RAW264.7 [2]
  inhibition at 10 µM: 52.2%

## O=C(NC(=O)c1ccco1)c1ccccc1
[1]
  viability at 24 h, 10 µM: 106%
RAW264.7 [2]
  inhibition at 10 µM: 70.2%

## O=C(/C=C/c1ccccc1)NC(=O)C1CCNC1 (configuration not stated)
[1]
  viability at 24 h, 10 µM: 130%
RAW264.7 [2]
  inhibition at 10 µM: 74%

## O=C(NCCCc1ccccc1)c1cccs1
RAW264.7 [2]
  inhibition: Active

## O=C(CCc1ccccc1)NCc1cccs1
RAW264.7 [2]
  inhibition: Active

## CC(C)Cc1ccc(C(C)C(=O)O)cc1 (configuration not stated) [IBUPROFEN]
[1]
  viability at 24 h, 10 µM: 132%
RAW264.7 [2]
  inhibition at 10 µM: 61%

## O=C(NC(=O)C1CCNC1)c1ccccc1 (configuration not stated)
[1]
  viability at 24 h, 10 µM: 115%
RAW264.7 [2]
  inhibition at 10 µM: 74%

## O=C(NC(=O)c1ccc2ccccc2n1)c1ccccc1
[1]
  viability at 24 h, 10 µM: 88.2%
RAW264.7 [2]
  inhibition at 10 µM: 74%

## O=C(CCc1ccccc1)NC(=O)c1cccs1
RAW264.7 [2]
  inhibition: Active

## C[C@@H]1C[C@H]2[C@@H]3CCC4=CC(=O)C=C[C@]4(C)[C@@]3(F)[C@@H](O)C[C@]2(C)[C@@]1(O)C(=O)CO
Mus musculus [5]
  Activity: Active
Mus musculus [8]
  Activity: Active
Mus musculus [12]
  Activity: Active

## O=C(NC(=O)c1ccccc1)c1ccccc1
[1]
  viability at 24 h, 10 µM: 109%
RAW264.7 [2]
  inhibition at 10 µM: 66.7%

## O=C(NC(=O)c1cccnc1)c1ccccc1
[1]
  viability at 24 h, 10 µM: 103%
RAW264.7 [2]
  inhibition at 10 µM: 62%

## O=C(/C=C/c1ccccc1)NCc1cccs1
RAW264.7 [2]
  inhibition: Active

## O=C(/C=C/c1ccccc1)NC(=O)c1ccco1
[1]
  viability at 24 h, 10 µM: 97.3%
RAW264.7 [2]
  inhibition at 10 µM: 88.6%

## COc1cc(/C=C/C(=O)CC(=O)/C=C/c2ccc(O)c(OC)c2)ccc1O [CURCUMIN]
[1]
  viability at 24 h, 10 µM: 120%
RAW264.7 [2]
  inhibition at 10 µM: 87%

## CC(C)(C)OC(=O)N1CCC(C(=O)NC(=O)/C=C/c2ccccc2)C1 (configuration not stated)
[1]
  viability at 24 h, 10 µM: 135%
RAW264.7 [2]
  inhibition at 10 µM: 77.5%

## O=C(/C=C/c1ccccc1)NC(=O)c1ccccc1
[1]
  viability at 24 h, 10 µM: 72.8%
RAW264.7 [2]
  inhibition at 10 µM: 90.7%

## O=C(NC(=O)c1cc2ccccc2[nH]1)c1ccccc1
[1]
  viability at 24 h, 10 µM: 90.5%
RAW264.7 [2]
  inhibition at 10 µM: 77.2%

## c1ccc(CCCNCc2cccs2)cc1
RAW264.7 [2]
  inhibition: Active
